Holding throughout (format): ADME
Data set [1] can be described thus: Activity of human recombinant N-terminal His-tagged DCK Ile24Val mutant expressed in Escherichia coli BL21(DE3) cells assessed as cytosine-beta-D-arabinofuranoside-5'-MP formation incubated for 3 mins by liquid chromatography-tandem mass spectrometry. The following applies: 0.05 h.
The nature of data set [2]: Activity of human recombinant N-terminal His-tagged DCK Pro122Ser mutant expressed in Escherichia coli BL21(DE3) cells assessed as cytosine-beta-D-arabinofuranoside-5'-MP formation incubated for 3 mins by liquid chromatography-tandem mass spectrometry. The following applies: 0.05 h.
The nature of data set [3]: Activity of human recombinant N-terminal His-tagged DCK Ala119Gly mutant expressed in Escherichia coli BL21(DE3) cells assessed as cytosine-beta-D-arabinofuranoside-5'-MP formation incubated for 3 mins by liquid chromatography-tandem mass spectrometry. The following applies: 0.05 h.
Data set [4] is described as follows: Drug metabolism assessed as […] incubated for 1 min in presence of human recombinant N-terminal His-tagged DCK Ile24Val mutant expressed in Escherichia coli BL21(DE3) cells by liquid chromatography-tandem mass spectrometry.
The nature of data set [5]: Ratio of intrinsic clearance for human recombinant N-terminal His-tagged DCK Ile24Val mutant expressed in Escherichia coli BL21(DE3) cells to intrisic clerance for human recombinant N-terminal His-tagged wild type DCK expressed in Escherichia coli BL21(DE3) cells.
Data set [6] in a line: Drug metabolism assessed as […] incubated for 1 min in presence of human recombinant N-terminal His-tagged DCK Pro122Ser mutant expressed in Escherichia coli BL21(DE3) cells by liquid chromatography-tandem mass spectrometry.
Data set [7] is described as follows: Drug metabolism assessed as […] incubated for 1 min in presence of human recombinant N-terminal His-tagged DCK Ala119Gly mutant expressed in Escherichia coli BL21(DE3) cells by liquid chromatography-tandem mass spectrometry.

By Km is commonly meant the concentration of substrate that gives half-maximal velocity. As usually defined, the Vmax is the rate approached at saturating substrate. Take `Nc1ccn([C@@H]2O[C@H](CO)[C@@H](O)[C@@H]2O)c(=O)n1` [CYTARABINE]: the Michaelis-Menten constant (Km) in data set [1] came out at 2.45 µM; in data set [2] it was 1.56 µM; in data set [3], 2.54 µM. The Vmax was found to be 599.4 nmol/min/mg in data set [1], 264 nmol/min/mg in data set [2] and 580.3 nmol/min/mg in data set [3].

Turning to `Nc1ccn([C@@H]2O[C@H](CO)[C@@H](O)C2(F)F)c(=O)n1` [GEMCITABINE], the Km turned out to be 1.52 µM in data set [4], 1.43 µM in data set [6] and 1.75 µM in data set [7]. Moreover, the Vmax came out at 1234 nmol/min/mg in data set [4], 573.2 nmol/min/mg in data set [6] and 828.1 nmol/min/mg in data set [7]. For the same compound, in data set [5], the Ratio came to 2.

The values are drawn from ChEMBL document CHEMBL3525898, “Pharmacogenomics of gemcitabine metabolism: functional analysis of genetic variants in cytidine deaminase and deoxycytidine kinase” (Drug Metab Dispos, 2013).
